{"source": "patent US20100331331A1", "about": "“THERAPEUTIC COMPOSITIONS AND THE USE THEREOF” (priority 2007, published 2010)", "key": {"CYP3A": {"tested_on": "CYP3A", "experiment": "CYP3A probe substrate midazolam pharmacokinetics with EVG/ATV versus EVG/r", "settings": "midazolam oral syrup 5 mg with last dose; EVG/ATV vs. EVG/r", "method": "(§1) Healthy subjects received EVG/r 300/100 mg or EVG/ATV 300/400 mg in a randomized, crossover manner for 10 days each, with the last dose being coadministered with the CYP3A probe substrate midazolam (oral syrup; 5 mg) and pharmacokinetic (PK) sampling performed. […] ATV, midazolam, and ritonavir pharmacokinetics were also determined for descriptive statistics."}, "[1]": {"experiment": "Similar studies of the effect of five protease inhibitors on the pharmacokinetics of the Compound", "format": "in vivo", "settings": "protease inhibitors with ritonavir 100 mg QD to 200 mg BID", "method": "These studies employed various doses of ritonavir (100 mg QD to 200 mg BID)."}, "[2]": {"experiment": "Pharmacokinetic interaction between atazanavir and the Compound: EVG/ATV versus EVG/r crossover in healthy subjects", "settings": "for half-life: human, plasma", "method": "This study evaluated the safety and steady-state pharmacokinetics of the co-administered Compound and ATV.\nas §1"}, "[3]": {"experiment": "Pharmacokinetic interaction between atazanavir/r and the Compound, steady-state PK in healthy subjects (studies 1 and 2)", "format": "in vivo, human", "settings": "for AUCtau % GMR (90% CI) / Cmax % GMR (90% CI) / Ctau % GMR (90% CI): coadministration:alone, 14 days", "source_text": "In study 1, 33/61 and study 2, 19/30 subjects completed each study; discontinuations were mostly for known ATV adverse events."}, "[4]": {"settings": "ATV 400 mg coadministered with EVG 300 mg"}, "[5]": {"settings": "Study 1, the Compound 200 mg (test and reference) + ATV/r 300/100 mg QD, n=33"}, "[6]": {"settings": "Study 2, the Compound test 85 mg, reference 150 mg, ATV/r 300/100 mg QD, n=20"}, "[7]": {"settings": "EVG/ATV 300/400 mg vs. EVG/r 300/100 mg, 10 days each, n=14"}}}
{"molecule": "Cc1ncc2n1-c1ccc(Cl)cc1C(c1ccccc1F)=NC2", "note": "[midazolam]", "values": [{"measurement": "AUCinf geometric mean ratio (90% CI)", "setting": "CYP3A", "value": "89.5 (80.7, 99.3) %"}, {"measurement": "Cmax geometric mean ratio (90% CI)", "setting": "CYP3A", "value": "98.8 (89.6, 109) %"}]}
{"molecule": "COC(=O)N[C@H](C(=O)N[C@@H](Cc1ccccc1)[C@@H](O)CN(Cc1ccc(-c2ccccn2)cc1)NC(=O)[C@@H](NC(=O)OC)C(C)(C)C)C(C)(C)C", "note": "[ATV, 1-[4-(pyridine-2-yl)-phenyl]-4(S)-2,5-bis-[N-(N-methoxycarbonyl-(L)-tert-leucyl)amino]-6-phenyl-2-axahexane, reference compound]", "values": [{"measurement": "effect on the pharmacokinetics of the Compound", "setting": "[1]", "value": "improved pharmacokinetic effect"}, {"measurement": "AUCtau and Ctau compared with historical data", "setting": "[2]; [4]", "value": "lower than historical data"}, {"measurement": "Mean (% CV) Ctau", "setting": "[2]; [4]", "value": "74.5 (45.7%) ng/ml"}]}
{"molecule": "COc1cc2c(cc1Cc1cccc(Cl)c1F)c(=O)c(C(=O)O)cn2[C@H](CO)C(C)C", "note": "[the Compound, 6-(3-chloro-2-fluorobenzyl)-1-[(2S)-1-hydroxy-3-methylbutan-2-yl]-7-methoxy-4-oxo-1,4-dihydroquinoline-3-carboxylic acid]", "values": [{"measurement": "systemic exposure", "setting": "[3]; 85 mg of the Compound with ritonavir-boosted atazanavir versus 150 mg dose of the Compound alone", "value": "equivalent"}, {"measurement": "AUCtau % GMR (90% CI)", "setting": "[3]; [5]", "value": 200, "unit": "%"}, {"measurement": "Cmax % GMR (90% CI)", "setting": "[3]; [5]", "value": 185, "unit": "%"}, {"measurement": "Ctau % GMR (90% CI)", "setting": "[3]; [5]", "value": 288, "unit": "%"}, {"measurement": "AUCtau % GMR (90% CI)", "setting": "[3]; [6]", "value": 107, "unit": "%"}, {"measurement": "Cmax % GMR (90% CI)", "setting": "[3]; [6]", "value": 90.9, "unit": "%"}, {"measurement": "Ctau % GMR (90% CI)", "setting": "[3]; [6]", "value": 138, "unit": "%"}, {"measurement": "exposures upon coadministration with ATV/r", "setting": "[3]; coadministration with ATV/r", "value": "elevated"}, {"measurement": "systemic exposure", "setting": "[2]; 300 mg of the Compound with atazanavir versus 300 mg with ritonavir", "value": "equivalent"}, {"measurement": "AUCtau geometric mean ratio (90% CI)", "setting": "[2]; [7]", "value": "107 (95.6, 119) %"}, {"measurement": "Cmax geometric mean ratio (90% CI)", "setting": "[2]; [7]", "value": "108 (99, 119) %"}, {"measurement": "Ctau geometric mean ratio (90% CI)", "setting": "[2]; [7]", "value": "89.9 (71.4, 113) %"}, {"measurement": "adverse events", "setting": "[2]; EVG/r 300/100 mg or EVG/ATV 300/400 mg, 10 days each, healthy subjects", "value": "No grade 4 AE or serious AE were observed"}, {"measurement": "half-life", "setting": "[2]; median T1/2, EVG/ATV 300/400 mg", "value": 5.2, "unit": "h"}, {"measurement": "half-life", "setting": "[2]; median T1/2, EVG/r 300/100 mg", "value": 6.3, "unit": "h"}]}
